US11225465B2, “Albicidin derivatives, their use and synthesis” (TECHNISCHE UNIVERSITÄT BERLIN, priority 2017, dated 2022)

Tests used:
Assay in all cases: MHK against further strains (Table 2)
Assay type in all cases: cell-based
[1] = tested on: Enterobacter cloacae PEG-10-52-78; conditions: Nr. 17 Enterobacter cloacae PEG-10-52-78, clinical isolate
Protocol: (§1) The tests were performed using the micro dilution method.
(§2) The determination of MIC values was performed according to the ninth edition of the Approved Standard M07-A9 (CLSI. Methods for Dilution Antimicrobial Susceptibility Tests for Bacteria That Grow Aerobically; Approved Standard—Ninth Edition. CLSI document M07-A9. Wayne, Pa.: Clinical and Laboratory Standards Institute; 2012.)

[2] = tested on: Pseudomonas aeruginosa PEG-10-2-61; conditions: Nr. 7 Pseudomonas aeruginosa PEG-10-2-61, clinical isolate
Protocol: as §1, §2

[3] = tested on: Enterococcus faecium PEG 13-73-65; conditions: Nr. 30 Enterococcus faecium PEG 13-73-65, clinical isolate
Protocol: as §1, §2

[4] = tested on: Klebsiella pneumoniae PEG-10-48-8; conditions: Nr. 12 Klebsiella pneumoniae PEG-10-48-8, clinical isolate
Protocol: as §1, §2

[5] = tested on: Pseudomonas aeruginosa PEG-10-44-76; conditions: Nr. 21 Pseudomonas aeruginosa PEG-10-44-76, clinical isolate
Protocol: as §1, §2

[6] = tested on: Staphylococcus aureus PEG 13-71-26; conditions: Nr. 27 Staphylococcus aureus PEG 13-71-26, clinical isolate
Protocol: as §1, §2

[7] = tested on: Enterococcus faecium PEG 13-9-13; conditions: Nr. 28 Enterococcus faecium PEG 13-9-13, clinical isolate
Protocol: as §1, §2

[8] = tested on: Klebsiella oxytoca PEG-10-45-54; conditions: Nr. 16 Klebsiella oxytoca PEG-10-45-54, clinical isolate; KBE/ml 4.40E+05
Protocol: as §1, §2

[9] = tested on: Klebsiella oxytoca PEG-10-75-18; conditions: Nr. 15 Klebsiella oxytoca PEG-10-75-18, clinical isolate
Protocol: as §1, §2

[10] = tested on: Staphylococcus aureus ATCC 29213; conditions: Nr. 8 Staphylococcus aureus ATCC 29213; KBE/ml 6.60E+05
Protocol: as §1, §2

[11] = tested on: Escherichia coli PEG 10-79-22; conditions: Nr. 11 Escherichia coli PEG 10-79-22, clinical isolate
Protocol: as §1, §2

[12] = tested on: Acinetobacter baumannii PEG 10-57-24; conditions: Nr. 24 Acinetobacter baumannii PEG 10-57-24, clinical isolate
Protocol: as §1, §2

[13] = tested on: Enterobacter aerogenes 220-1-22; conditions: Nr. 18 Enterobacter aerogenes 220-1-22, clinical isolate
Protocol: as §1, §2

[14] = tested on: Acinetobacter baumannii PEG 10-12-26; conditions: Nr. 22 Acinetobacter baumannii PEG 10-12-26, clinical isolate
Protocol: as §1, §2

[15] = tested on: Klebsiella pneumoniae PEG-10-90-74; conditions: Nr. 5 Klebsiella pneumoniae PEG-10-90-74, clinical isolate; KBE/ml 4.00E+05
Protocol: as §1, §2

[16] = tested on: Pseudomonas aeruginosa PEG-10-47-57; conditions: Nr. 20 Pseudomonas aeruginosa PEG-10-47-57, clinical isolate
Protocol: as §1, §2

[17] = tested on: Acinetobacter baumannii PEG 10-57-31; conditions: Nr. 23 Acinetobacter baumannii PEG 10-57-31, clinical isolate; KBE/ml 2.60E+05
Protocol: as §1, §2

[18] = tested on: Enterococcus faecium PEG 13-17-59; conditions: Nr. 29 Enterococcus faecium PEG 13-17-59, clinical isolate
Protocol: as §1, §2

[19] = tested on: Staphylococcus aureus PEG 10-38-22; conditions: Nr. 9 Staphylococcus aureus PEG 10-38-22, clinical isolate
Protocol: as §1, §2

[20] = tested on: Klebsiella pneumoniae PEG-10-20-4; conditions: Nr. 4 Klebsiella pneumoniae PEG-10-20-4, clinical isolate
Protocol: as §1, §2

[21] = tested on: Acinetobacter baumannii PEG 10-86-5; conditions: Nr. 25 Acinetobacter baumannii PEG 10-86-5, clinical isolate; KBE/ml 2.00E+05
Protocol: as §1, §2

[22] = tested on: Staphylococcus aureus PEG 13-18-19; conditions: Nr. 26 Staphylococcus aureus PEG 13-18-19, clinical isolate
Protocol: as §1, §2

[23] = tested on: Escherichia coli 100-2-49; conditions: Nr. 2 Escherichia coli 100-2-49, clinical isolate; KBE/ml 3.80E+05
Protocol: as §1, §2

[24] = tested on: Klebsiella pneumoniae 310-1-54; conditions: Nr. 14 Klebsiella pneumoniae 310-1-54, clinical isolate
Protocol: as §1, §2

[25] = tested on: Escherichia coli ATCC 25922; conditions: Nr. 1 Escherichia coli ATCC 25922; KBE/ml 2.80E+05
Protocol: as §1, §2

[26] = tested on: Escherichia coli PEG 10-2-81; conditions: Nr. 10 Escherichia coli PEG 10-2-81, clinical isolate
Protocol: as §1, §2

[27] = tested on: Escherichia coli 100-2-56; conditions: Nr. 3 Escherichia coli 100-2-56, clinical isolate
Protocol: as §1, §2

[28] = tested on: Klebsiella pneumoniae PEG-10-75-61; conditions: Nr. 13 Klebsiella pneumoniae PEG-10-75-61, clinical isolate; KBE/ml 4.00E+05
Protocol: as §1, §2

[29] = tested on: Pseudomonas aeruginosa ATCC 27853; conditions: Nr. 6 Pseudomonas aeruginosa ATCC 27853; KBE/ml 5.60E+05
Protocol: as §1, §2

[30] = tested on: Enterobacter asburiae PEG-13-74-62; conditions: Nr. 19 Enterobacter asburiae PEG-13-74-62, clinical isolate; KBE/ml 8.20E+05
Protocol: as §1, §2

For `COc1c(NC(=O)c2ccc(NC(=O)c3ccc(NC(=O)[C@H](Cc4c[nH]cn4)NC(=O)c4ccc(NC(=O)/C(C)=C/c5ccc(O)cc5)cc4)cc3)c(OC)c2O)ccc(C(=O)O)c1O` [Compound 1, L-His-albicidin], which MHK [1] is on record?
Its MHK is 32 mg/L.

And the MHK [2]?
The MHK was 32 mg/L.

And the MHK [3]?
The MHK was 32 mg/L.

And the MHK [4]?
The MHK was 32 mg/L.

And the MHK [5]?
Its MHK is 4 mg/L.

And the MHK [6]?
Its MHK is 4 mg/L.

What about the MHK [7] of the same compound?
The MHK was 32 mg/L.

What about the MHK [8] of the same compound?
The MHK was 4 mg/L.

What about the MHK [9] of the same compound?
The MHK was 32 mg/L.

And the MHK [10]?
Its MHK is 8 mg/L.

And the MHK [11]?
Its MHK is 0.25 mg/L.

What about the MHK [12] of the same compound?
Its MHK is 2 mg/L.

And the MHK [13]?
Its MHK is 32 mg/L.

And the MHK [14]?
The MHK was 16 mg/L.

What about the MHK [15] of the same compound?
Its MHK is 32 mg/L.

What about the MHK [16] of the same compound?
The MHK was 8 mg/L.

And the MHK [17]?
Its MHK is 32 mg/L.

And the MHK [18]?
Its MHK is 32 mg/L.

And the MHK [19]?
The MHK was 32 mg/L.

What about the MHK [20] of the same compound?
Its MHK is 32 mg/L.

What about the MHK [21] of the same compound?
Its MHK is 4 mg/L.

And the MHK [22]?
Its MHK is 8 mg/L.

And the MHK [23]?
Its MHK is 0.5 mg/L.

And the MHK [24]?
Its MHK is 32 mg/L.

And the MHK [25]?
Its MHK is 0.063 mg/L.

And the MHK [26]?
The MHK was 0.5 mg/L.

And the MHK [27]?
Its MHK is 2 mg/L.

And the MHK [28]?
Its MHK is 32 mg/L.

And the MHK [29]?
Its MHK is 2 mg/L.

What about the MHK [30] of the same compound?
The MHK was 32 mg/L.

How did the MHK [1] turn out when `COc1c(NC(=O)c2ccc(NC(=O)c3ccc(NC(=O)[C@H](CN(C)C)NC(=O)c4ccc(NC(=O)/C(C)=C/c5ccc(O)cc5)cc4)cc3)c(OC)c2O)ccc(C(=O)O)c1O` [Compound 2, L-DMDAP-Albicidin] was run?
Its MHK is 32 mg/L.

And the MHK [2]?
Its MHK is 32 mg/L.

And the MHK [3]?
Its MHK is 32 mg/L.

What about the MHK [4] of the same compound?
Its MHK is 32 mg/L.

What about the MHK [5] of the same compound?
Its MHK is 32 mg/L.

And the MHK [6]?
Its MHK is 32 mg/L.

What about the MHK [7] of the same compound?
Its MHK is 32 mg/L.

And the MHK [8]?
The MHK was 32 mg/L.

And the MHK [9]?
Its MHK is 32 mg/L.

What about the MHK [10] of the same compound?
Its MHK is 32 mg/L.

And the MHK [11]?
The MHK was 32 mg/L.

What about the MHK [12] of the same compound?
Its MHK is 32 mg/L.

And the MHK [13]?
The MHK was 32 mg/L.

What about the MHK [14] of the same compound?
The MHK was 32 mg/L.

What about the MHK [15] of the same compound?
The MHK was 32 mg/L.

And the MHK [16]?
The MHK was 32 mg/L.

And the MHK [17]?
Its MHK is 32 mg/L.

What about the MHK [18] of the same compound?
Its MHK is 32 mg/L.

And the MHK [19]?
Its MHK is 32 mg/L.

And the MHK [20]?
The MHK was 32 mg/L.

And the MHK [21]?
The MHK was 32 mg/L.

What about the MHK [22] of the same compound?
The MHK was 32 mg/L.

What about the MHK [23] of the same compound?
Its MHK is 32 mg/L.

And the MHK [24]?
The MHK was 32 mg/L.

What about the MHK [25] of the same compound?
Its MHK is 0.125 mg/L.

And the MHK [26]?
The MHK was 32 mg/L.

What about the MHK [27] of the same compound?
The MHK was 32 mg/L.

And the MHK [28]?
The MHK was 32 mg/L.

And the MHK [29]?
The MHK was 32 mg/L.

And the MHK [30]?
Its MHK is 32 mg/L.

Which results are given for `COc1c(NC(=O)c2ccc(NC(=O)c3ccc(NC(=O)C(Cc4c[nH]nn4)NC(=O)c4ccc(NC(=O)/C(C)=C/c5ccc(O)cc5)cc4)cc3)c(OC)c2O)ccc(C(=O)O)c1O` [Compound 3, L-Azahis-Albicidin]?
MHK [1]: 32 mg/L; MHK [2]: 8 mg/L; MHK [3]: 8 mg/L; MHK [4]: 32 mg/L; MHK [5]: 0.5 mg/L; MHK [6]: 0.125 mg/L; MHK [7]: 8 mg/L; MHK [8]: 0.5 mg/L; MHK [9]: 8 mg/L; MHK [10]: 0.5 mg/L; MHK [11]: 0.063 mg/L; MHK [12]: 1 mg/L; MHK [13]: 4 mg/L; MHK [14]: 16 mg/L; MHK [15]: 32 mg/L; MHK [16]: 4 mg/L; MHK [17]: 32 mg/L; MHK [18]: 8 mg/L; MHK [19]: 2 mg/L; MHK [20]: 32 mg/L; MHK [21]: 4 mg/L; MHK [22]: 0.5 mg/L; MHK [23]: 0.063 mg/L; MHK [24]: 32 mg/L; MHK [25]: 0.008 mg/L; MHK [26]: 0.063 mg/L; MHK [27]: 0.25 mg/L; MHK [28]: 32 mg/L; MHK [29]: 1 mg/L; MHK [30]: 32 mg/L

Which results are given for `COc1c(NC(=O)c2ccc(NC(=O)c3ccc(NC(=O)[C@@H](CN(C)C)NC(=O)c4ccc(NC(=O)/C(C)=C/c5ccc(O)cc5)cc4)cc3)c(OC)c2O)ccc(C(=O)O)c1O` [Compound 16, D-DMDAP-Albicidin]?
MHK [1]: 32 mg/L; MHK [2]: 32 mg/L; MHK [3]: 32 mg/L; MHK [4]: 32 mg/L; MHK [5]: 32 mg/L; MHK [6]: 32 mg/L; MHK [7]: 32 mg/L; MHK [8]: 32 mg/L; MHK [9]: 32 mg/L; MHK [10]: 32 mg/L; MHK [11]: 32 mg/L; MHK [12]: 32 mg/L; MHK [13]: 32 mg/L; MHK [14]: 32 mg/L; MHK [15]: 32 mg/L; MHK [16]: 32 mg/L; MHK [17]: 32 mg/L; MHK [18]: 32 mg/L; MHK [19]: 32 mg/L; MHK [20]: 32 mg/L; MHK [21]: 32 mg/L; MHK [22]: 32 mg/L; MHK [23]: 32 mg/L; MHK [24]: 32 mg/L; MHK [25]: 16 mg/L; MHK [26]: 32 mg/L; MHK [27]: 32 mg/L; MHK [28]: 32 mg/L; MHK [29]: 32 mg/L; MHK [30]: 32 mg/L
